Experimental data: US20230381349A1, “METHODS AND COMPOSITIONS FOR IMAGING AND TREATING CANCER” (WASHINGTON UNIVERSITY, priority 2020, published 2023)

Legend:
KI tumor = experiment: Treatment efficacy in KI xenograft model; type: in vivo, mouse; conditions: for median survival: KI mice
Description: A KI xenograft model was used to monitor tumor growth trends and treatment efficacy of CuNPs-ECL1i-Gem. 10 days after tumor implantation, mice were randomized into 5 groups (n=5/group): (1) CuNPs-ECL1i-Gem (Cu mass: 10 mg/kg body weight, Gem: 3.4±0.8 mg/kg body weight, I.V. injection, twice per week); (2) CuNPs-ECL1i (same CuNPs-NT dose as (1), I.V. injection, twice per week); (3) gemcitabine 7 mg/kg body weight (I.V. injection, twice per week); (4) gemcitabine 100 mg/kg body weight (I. P. injection, once per week); (5) saline (100 μL, I.V. injection, twice per week). For the 2nd treatment study, the mice started dose administration at 7 days post implantation. The dose regimens of CuNPs-NT-Gem and CuNPs-ECL1i-Gem were the same as the 1st treatment study. The Cu mass was limited to a dosage of 10 mg/kg for all nanoparticle groups, and the relative loaded gemcitabine dose was 3.4±0.8 mg/kg body weight. […] Tumor volume was calculated as (length×width2)/2. The treatment was continued for 6 successive weeks or until the mice died or were sacrificed and deemed as dead when their tumor volume reached over 2000 mm^3. After treatment, the tumors were collected for H&E staining.

KI cells = experiment: In vitro cytotoxicity (WST-1 cell viability) assay; type: cell-based; conditions: Mus musculus, 72 h, 3 days continuous drug treatment
Description: All cells were cultured at 37° C., 5% C02, and 95% humidity.
The KI Cells were seeded into 96-well plates at a density of 5000 cells per well. 24 hrs later, the medium was replaced by fresh medium containing TA-PEG-Gem and Gem at the indicated concentration (range, 0-500 μM), respectively. All experimental incubation conditions were performed at least in triplicate. Cell viability was determined after 3 days of continuous drug treatment using the WST-1 cell cytotoxicity assay (Roche, Basel, Switzerland) following the manufacturer's instruction. Briefly, 10 μl WST-1 reagent was added in each well followed by additional incubation for 4 h. The absorbance at 440 nm was measured using a microplate reader. IC50 was calculated using GraphPad Prism 7.03 software (GraphPad Software, San Diego, CA).

In the case of `Nc1ccn([C@@H]2O[C@H](CO)[C@@H](O)C2(F)F)c(=O)n1` [Gem, gemcitabine], the median survival (KI tumor; start day 10, high dose 100 mg/kg I.P. once per week) is reported as 26 days, the median survival (KI tumor; start day 10, low dose 7 mg/kg I.V. twice per week) is reported as 25 days and the “tumor growth effect compared to saline” value (KI tumor; start day 10, high dose 100 mg/kg I.P.) is reported as “did not show any treatment benefit”. For the same compound, the “tumor growth effect compared to saline” value (KI tumor; start day 10, low dose 7 mg/kg I.V.) was “did not show any treatment benefit” and the IC50 (KI cells) was 19.7 µM.
